Measured values as given in the supplement of paper PMC10307832.

Columns and labels:
Experiment in all cases: relative viability (nuclei count vs DMSO), 5 days (fraction); higher = more cells survive
[1] = compound: C=CCn1c(=O)c2cnc(Nc3ccc(N4CCN(C)CC4)cc3)nc2n1-c1cccc(C(C)(C)O)n1 [Adavosertib] + O=C(CCCCCCC(=O)Nc1ccccc1)NO [Vorinostat] (partner 1 µM)
In short: (§1)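 Relative viability divides the nuclei count in treated wells by that in vehicle wells. Lung cancer cell lines were seeded in 1536-well plates, dosed by pin tool the next day, and fixed and stained after 5 days in one step with final 0.05% Triton X-100, 1% formaldehyde and 1 ug/ml Hoechst. Dosing was a single drug or a fixed anchor-drug dose plus five library-drug doses (not always all listed) in √10 steps, and values are medians of duplicate plates imaged at 4×.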

[2] = compound: COc1nc(N)nc2c1ncn2[C@@H]1O[C@H](CO)[C@@H](O)[C@@H]1O [Nelarabine] + O=C(CCCCCCC(=O)Nc1ccccc1)NO [Vorinostat] (partner 1 µM)
In short: as §1

[3] = compound: COc1nc(N)nc2c1ncn2[C@@H]1O[C@H](CO)[C@@H](O)[C@@H]1O [Nelarabine] + Cc1nc(Nc2ncc(C(=O)Nc3c(C)cccc3Cl)s2)cc(N2CCN(CCO)CC2)n1 [Dasatinib] (partner 0.075 µM)
In short: as §1

[4] = compound: COc1nc(N)nc2c1ncn2[C@@H]1O[C@H](CO)[C@@H](O)[C@@H]1O [Nelarabine] + Nc1ncn([C@H]2C[C@H](O)[C@@H](CO)O2)c(=O)n1 [Decitabine] (partner 2 µM)
In short: as §1

Row | Cell Line | relative viability ([1]; first compound 0.01 µM) | relative viability ([1]; first compound 0.03162 µM) | relative viability ([1]; first compound 0.1 µM) | relative viability ([1]; first compound 0.3162 µM) | relative viability ([2]; first compound 0.01 µM) | relative viability ([2]; first compound 0.03162 µM) | relative viability ([2]; first compound 0.1 µM) | relative viability ([2]; first compound 0.3162 µM) | relative viability ([2]; first compound 1 µM) | relative viability ([3]; first compound 0.01 µM) | relative viability ([3]; first compound 0.03162 µM) | relative viability ([3]; first compound 0.1 µM) | relative viability ([3]; first compound 0.3162 µM) | relative viability ([3]; first compound 1 µM) | relative viability ([4]; first compound 0.01 µM) | relative viability ([4]; first compound 0.03162 µM) | relative viability ([4]; first compound 0.1 µM) | relative viability ([4]; first compound 0.3162 µM) | relative viability ([4]; first compound 1 µM)
1 | NCI-H322M | 0.782 | 0.842 | 0.722 | 0.564 | 0.942 | 0.856 | 0.954 | 0.943 | 0.802 | 0.268 | 0.252 | 0.231 | 0.273 | 0.246 | 0.68 | 0.662 | 0.659 | 0.718 | 0.678
2 | NCI-H2087 | 0.812 | 0.637 | 0.702 | 0.826 | 0.674 | 0.551 | 1.07 | 0.874 | 0.898 | 1.14 | 0.718 | 0.526 | 0.981 | 1.09 | 0.248 | 0.28 | 0.309 | 0.335 | 0.3
3 | NCI-H2405 |  | 0.882 | 0.965 | 0.895 | 1.2 | 0.988 | 1.05 | 1.03 | 0.886 | 0.208 | 0.244 | 0.233 | 0.21 | 0.229 | 0.674 | 0.686 | 0.745 | 0.816 | 0.721
4 | NCI-H1915 | 0.552 | 0.521 | 0.53 | 0.373 | 0.599 | 0.544 | 0.488 | 0.573 | 0.57 | 0.337 | 0.36 | 0.281 | 0.296 | 0.364 | 0.261 | 0.266 | 0.258 | 0.27 | 0.268
5 | NCI-H1395 | 0.595 | 0.759 | 0.619 | 0.504 | 0.757 | 0.706 | 1.16 | 0.755 | 0.666 | 0.418 | 0.39 | 0.413 | 0.408 | 0.408 | 0.678 | 0.65 | 0.723 | 0.7 | 0.704
6 | LOU-NH91 | 0.882 | 0.99 | 0.908 | 0.896 | 0.993 | 0.814 | 0.889 | 0.931 | 0.873 | 0.628 | 0.591 | 0.436 | 0.585 | 0.605 | 0.896 | 0.755 | 0.766 | 0.802 | 0.809
7 | SW 1573 | 0.807 | 0.687 | 0.904 | 0.758 | 1.05 | 0.81 | 0.806 | 0.628 | 0.776 | 0.422 | 0.453 | 0.394 | 0.485 | 0.494 | 0.582 | 0.503 | 0.513 | 0.58 | 0.483
8 | NCI-H23 | 0.627 | 0.469 | 0.401 | 0.185 | 0.737 | 0.604 | 0.548 | 0.615 | 0.584 | 1.01 | 0.838 | 0.588 | 0.927 | 0.819 | 0.249 | 0.272 | 0.299 | 0.348 | 0.303
